Source: ChEMBL document CHEMBL1130751, “Synthesis and 5 alpha-reductase inhibitory activity of 8-substituted benzo[f]quinolinones derived from palladium mediated coupling reactions” (Bioorg Med Chem Lett, 1998)

Tests used:
[1] = molecular target: T1, 3-oxo-5-alpha-steroid 4-dehydrogenase 2 (Homo sapiens, UniProt P31213); test: Inhibitory activity against Steroid 5-alpha-reductase type 2 as [3H]T to [3H]-DHT conversion human prostate nuclear membrane; format: tissue-based, Prostate gland
T1 sequence (P31213 whole entry): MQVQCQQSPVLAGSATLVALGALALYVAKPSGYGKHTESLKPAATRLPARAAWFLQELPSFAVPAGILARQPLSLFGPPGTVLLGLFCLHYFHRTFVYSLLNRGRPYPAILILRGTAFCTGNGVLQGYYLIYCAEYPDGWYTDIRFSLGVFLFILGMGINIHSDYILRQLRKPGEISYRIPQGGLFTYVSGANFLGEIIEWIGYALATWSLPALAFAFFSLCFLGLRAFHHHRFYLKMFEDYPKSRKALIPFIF

[2] = molecular target: T2, 3-oxo-5-alpha-steroid 4-dehydrogenase 1 (Homo sapiens, UniProt P18405); test: Inhibitory activity against Steroid 5-alpha-reductase type I enzyme based on the conversion of [3H]-T to [3H]DHT in nuclear membrane preparations from human scalp; format: cell membranes
T2 sequence (P18405 whole entry): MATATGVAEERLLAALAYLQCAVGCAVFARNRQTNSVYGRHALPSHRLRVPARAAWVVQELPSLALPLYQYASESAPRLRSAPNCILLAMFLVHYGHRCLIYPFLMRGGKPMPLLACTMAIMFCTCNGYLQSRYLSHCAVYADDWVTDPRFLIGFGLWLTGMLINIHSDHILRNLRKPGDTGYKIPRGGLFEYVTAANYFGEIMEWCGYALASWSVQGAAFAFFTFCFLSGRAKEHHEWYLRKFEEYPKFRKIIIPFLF

[3] = molecular target: T2, 3-oxo-5-alpha-steroid 4-dehydrogenase 1; test: Inhibitory activity against Steroid 5-alpha-reductase type 1 enzyme based on the conversion of [3H]T to [3H]-DHT in nuclear membrane preparations from human scalp; format: cell membranes

Compound | IC50 [1] | IC50 [2] | IC50 [3]
CN1C(=O)CC[C@]2(C)c3ccc(C#Cc4ccccc4)cc3CC[C@@H]12 | 52 nM | 21 nM | –
CN1C(=O)CC[C@]2(C)c3ccc(CC(N)=O)cc3CC[C@@H]12 | > 10000 nM | – | > 10000 nM
CN1C(=O)CC[C@]2(C)c3ccc(/C=C\c4ccccc4)cc3CC[C@@H]12 | 1400 nM | 6 nM | –
CCN(CC)C(=O)Cc1ccc2c(c1)CC[C@H]1N(C)C(=O)CC[C@]21C | > 10000 nM | – | > 10000 nM
CN1C(=O)CC[C@]2(C)c3ccc(CC(=O)Nc4ccccc4)cc3CC[C@@H]12 | 520 nM | – | > 10000 nM
CN1C(=O)CC[C@]2(C)c3ccc(/C=C/c4cncc5ccccc45)cc3CC[C@@H]12 | 1340 nM | – | 63 nM
CN1C(=O)CC[C@]2(C)c3ccc(/C=C/c4ccc5ccccc5n4)cc3CC[C@@H]12 | 550 nM | – | 32 nM
CN1C(=O)CC[C@]2(C)c3ccc(-c4cccs4)cc3CC[C@@H]12 | > 10000 nM | – | > 10000 nM
CN1C(=O)CC[C@]2(C)c3ccc(CC(=O)NC(C)(C)C)cc3CC[C@@H]12 | > 10000 nM | – | > 10000 nM

Continued, values first:

IC50 [1] | IC50 [2] | IC50 [3] | Compound
870 nM | – | – | CN1C(=O)CC[C@]2(C)c3ccc(CC(=O)O)cc3CC[C@@H]12
320 nM | – | 3.4 nM | CN1C(=O)CC[C@]2(C)c3ccc(/C=C/c4cnc5ccccc5c4)cc3CC[C@@H]12
> 10000 nM | – | 59 nM | CN1C(=O)CC[C@]2(C)c3ccc(-c4ccco4)cc3CC[C@@H]12
180 nM | 23 nM | – | CN1C(=O)CC[C@]2(C)c3ccc(/C=C/c4ccccc4)cc3CC[C@@H]12
